Source: patent US12016340B2, “Synergistic antimicrobial formulation consisting of plant extract and lauric arginate” (KALAMAZOO HOLDINGS, INC., priority 2019, dated 2024)

Columns and labels:
[1] = prior art; cited from earlier work
[2] = system: Z. bailii; assay: Antimicrobial efficacy of emulsions, growth measured by optical density at 600 nm; assay type: cell-based, Zygosaccharomyces bailii; details: time course; 45.5 ppm thyme oil and 13 ppm LAE emulsion, or 13 ppm lauric arginate alone; FIG. 4
Protocol: Antimicrobial efficacy of emulsions of the invention is assessed by back diluting a mid-log phase, overnight culture of Z. bailii 1:100 into fresh acidified (pH 5) yeast peptone dextrose broth and adding the appropriate concentration of emulsion. Emulsions are prepared and tested in duplicate. Controls of lauric arginate are prepared in the same buffer with corn oil substituted for essential oil, at the same concentration. To test thyme oil alone, ethanol is used as a vehicle to solubilize the thyme oil in the microbiological media.
The antimicrobial efficacy of the formulations was evaluated against the relevant spoilage organism Z. bailii after 72 hours of incubation, as measured by optical density at 600 nm. See FIG. 3 which compares the growth of Z. bailii under differing conditions. Z. bailii was treated to emulsions comprising 52.5 ppm Thyme oil and 15 ppm lauric arginate (LAE); 52.5 ppm Thyme essential oil alone; or 15 ppm lauric arginate alone. […]
Additional studies were conducted in order to ascertain the temporal component of lauric arginate activity. […] Cells are treated to 45.5 ppm Thyme oil and 13 ppm lauric arginate (LAE) emulsion; 45.5 ppm Thyme essential oil alone; or 13 ppm lauric arginate alone, and the OD600 of the cultures were measured over time. […]

Q: Which “level at which synergy with lauric arginate was reported” value [1] does the source give for `Cc1ccc(C(C)C)cc1O` [carvacrol] here?
A: 60 ppm

Q: For `CCCCCCCCCCCC(=O)N[C@@H](CCCN=C(N)N)C(=O)OCC` [lauric arginate, Lauric arginate], which “growth inhibition over time (OD600)” value [2] is on record?
A: not inhibitory

Q: Which “synergy with lauric arginate” value [1] does the source give for `Cc1ccc(C(C)C)c(O)c1` [thymol] here?
A: not to possess synergy
